Biological target: T1, EhCaBP1 (Entamoeba histolytica, UniProt P38505)
T1 construct: gene CaBP1; trimer, Phe site between EF1 and EF2 of neighbouring molecules; C-terminal half without density; strain printed for amoeba culture only
Assay: X-ray crystal structure of the complex (co-crystallisation)
Format: binding
Conditions: 2 mM phenylalanine, 10 mM CaCl2 in protein solution; crystals from 63-65% MPD, 5 mM CaCl2, 50 mM acetate pH 4, 16 °C; hydrophobic pocket between EF1 and EF2 of adjacent molecules

T1 sequence (P38505 whole entry): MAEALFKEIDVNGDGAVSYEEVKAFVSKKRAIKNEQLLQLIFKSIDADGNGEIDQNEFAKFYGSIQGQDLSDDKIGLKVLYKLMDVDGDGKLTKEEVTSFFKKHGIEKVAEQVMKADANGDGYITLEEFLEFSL

N[C@@H](Cc1ccccc1)C(=O)O [Phenylalanine]
X-ray crystal structure of the complex (co-crystallisation): hydrophobic pocket formed at the interface between EF1 and EF2 in the assembled domain

Reference: PMC2668073, “N- and C-Terminal Domains of the Calcium Binding Protein EhCaBP1 of the Parasite Entamoeba histolytica Display Distinct Functions” (PLoS ONE, 2009)
